Data set [1] in a line: CNS MPO desirability score. The conditions noted are these: from experimental and calculated data, method of Wager et al. (2016); scale 0-6. The procedure:
ACDLAbs PhysChem Suite 14.0 software (Advanced Chemistry Development, Inc., Toronto, ON, Canada) was used for the calculation of Mw, tPSA, and HBD values. The CNS MPO score calculation method was described by [Wager et al. (2016)].
Central nervous system multiparameter optimization desirability score was calculated as described by [Wager et al. (2016)], utilizing all collected experimental and calculated data. This scoring tool was set on ranges of desirable property space and linear transformational functions with values between 0 and 1 (defined as T0 for each property). Rating each parameter equally, the collective score ranges from 0 to 6, while a score higher than 4 is desirable ([Rankovic, 2015]).

The test system of data set [2] is BJ, RPE-1 and U373 cells. Kind of data set: Crystal violet and resazurin proliferation screen in proliferating cells. The format is cell-based, human. The conditions noted are these: RPE-1, U373, 0, 10, 50, 80, 100 μM, 24 h. As to the method:
All cell lines used in the study were obtained from the American Type Culture Collection (ATCC, Manassas, VA, USA). Human telomerase-immortalized retinal pigment epithelial cells RPE-1, glioblastoma U-87 MG, glioblastoma U373MG, glioblastoma T98G, glioblastoma A-172, breast adenocarcinoma MDA-MB-231, prostate carcinoma DU-145, and non-small cell lung cancer NCI-H1299 cell lines were cultured in Dulbecco’s modified Eagle’s medium (DMEM, Thermo Fisher Scientific, Waltham, MA, USA) with high glucose (4.5 g/L). Primary human skin BJ fibroblasts were cultured in Dulbecco’s modified Eagle’s medium (DMEM, Thermo Fisher Scientific, Waltham, MA, USA) with low glucose (1 g/L). Both cell culture media were supplemented with 10% fetal bovine serum (FBS, Gibco/Thermo Fisher Scientific) and non-essential amino acids (NEAA), 100 units/mL of penicillin, and 100 μg/mL of streptomycin (Sigma-Aldrich). Cells were kept at 37°C under a 5% CO2 atmosphere and 95% humidity.
(§1) Twenty-four hours before treatment, cells were plated in 96-well plates at densities of 2,850 cells per well for senescent RPE-1 (IR-RPE-1), 3,350 cells per well for proliferating RPE-1 and senescent BJ (DIS-BJ), and 5,000 cells per well for U373, T98, A172, U87, TMZ-U87, and proliferating BJ cells.
(§2) For the crystal violet assay, the cells were washed twice with 150 μL PBS and stained with 30 μL 0.5% (w/v) crystal violet in 20% methanol for 15 mins. Next, the plates were washed five times with ddH2O and left to dry overnight. Crystal violet was solubilized with 75 μL 0.2% Triton X-100 (Sigma) in PBS for 15 mins. The absorbance was read at 595 nm using a microplate reader (Envision, PerkinElmer, Waltham, MA, USA). The absorbance of crystal violet in treated cells was expressed as a percentage of absorbance in untreated cells. Each condition was measured at least in triplicate.
(§3) For the resazurin assay, 200 μL of the culture medium of each well was exchanged for 100 μL of resazurin (stock solution 30 mg/mL; Sigma, St. Louis, MO, USA) diluted 10 times in the culture medium, and the cells were incubated at 37°C for 1–3 h. Reading of fluorescence was done using a microplate reader (PerkinElmer, Waltham, MA, USA). Absolute values of fluorescence were related to the values of untreated cells. Each condition was measured at least in triplicate.
(Alamar Blue is a resazurin reagent that responds to reducing activity.)

Data set [3] has as its system glioblastoma T98, A172 and U87 cells. Kind of data set: Crystal violet and resazurin assays in further glioblastoma lines. The format is cell-based, human. The conditions noted are these: 0–100 μM, 24 h. The procedure:
as §1, §2, §3

The test system of data set [4] is docetaxel (DTX)-induced senescent BJ cells. Kind of data set: Crystal violet and resazurin assays in docetaxel-induced senescent BJ. It is filed as cell-based, human. As to the method: (§4) To obtain ionizing radiation (IR)-induced senescent cells, proliferating RPE-1 cells were exposed to a single dose of X-rays (20 Gy) using Pantak HF160 (Gulmay, Surrey, UK) X-ray instrument equipped with Pantak Seifert HF320 generator, MXR-161 X-ray tube (Comet AG, Flamatt, Switzerland), and an aluminum filter using current 1–10 mA. After irradiation, the cells were cultured for an additional 7 days until the development of the senescent phenotype ([Salovska et al., 2022]). To induce docetaxel-induced senescence (DIS), BJ cells were exposed to 5 nM docetaxel for 7 days, as described previously ([Sapega et al., 2018]). […]
(§5) For the crystal violet assay, the cells were washed twice with 150 μL PBS and stained with 30 μL 0.5% (w/v) crystal violet in 20% methanol for 15 mins. […] The absorbance was read at 595 nm using a microplate reader (Envision, PerkinElmer, Waltham, MA, USA). The absorbance of crystal violet in treated cells was expressed as a percentage of absorbance in untreated cells. Each condition was measured at least in triplicate.
(§6) For the resazurin assay, 200 μL of the culture medium of each well was exchanged for 100 μL of resazurin (stock solution 30 mg/mL; Sigma, St. Louis, MO, USA) diluted 10 times in the culture medium, and the cells were incubated at 37°C for 1–3 h. Reading of fluorescence was done using a microplate reader (PerkinElmer, Waltham, MA, USA). […]

In data set [5] the test system is IR-RPE-1 senescent cells. Kind of data set: Time-lapse microscopy of IR-senescent RPE-1. It is filed as cell-based, human. Conditions: 100 μM, 72 h. The procedure:
To obtain ionizing radiation (IR)-induced senescent cells, proliferating RPE-1 cells were exposed to a single dose of X-rays (20 Gy) using Pantak HF160 (Gulmay, Surrey, UK) X-ray instrument equipped with Pantak Seifert HF320 generator, MXR-161 X-ray tube (Comet AG, Flamatt, Switzerland), and an aluminum filter using current 1–10 mA. After irradiation, the cells were cultured for an additional 7 days until the development of the senescent phenotype ([Salovska et al., 2022]). To induce docetaxel-induced senescence (DIS), BJ cells were exposed to 5 nM docetaxel for 7 days, as described previously ([Sapega et al., 2018]). To prepare temozolomide (TMZ)-induced senescence, U87 cells were exposed to 100 μM TMZ for 14 days.
For auto-monitoring of cells, Incucyte SX1 Live-Cell Analysis System (Sartorius, Göttingen, Germany), located in an incubator maintained at 37°C under a 5% CO2 atmosphere and 95% humidity, was utilized. The images (1,408 × 1,040 pixels at 1.24 microns/pixel) were acquired using a 10× objective lens in phase contrast, red fluorescence (excitation: 585 ± 20 nm, emission: 635 [625, 705] nm, acquisition time: 100 ms) channels every 60 min during 72 h. The first image was acquired 30 min after adding compounds. The images were processed to measure cell confluence using Incucyte software (version 2022A). […]

Data set [6] has as its system temozolomide (TMZ)-induced senescent U87 cells. Kind of data set: Crystal violet and resazurin assays in TMZ-induced senescent U87. The format is cell-based, human. Conditions: 0–100 μM, 24 h. The procedure:
as §4, §5, §6

Here are results for one molecule from article PMC9767416, “Discovery of small molecule mechanistic target of rapamycin inhibitors as anti-aging and anti-cancer therapeutics” (Frontiers in Aging Neuroscience, 2022).

As for `Nc1ccc(C(=O)Nc2cccc(-c3c[nH]c4ncccc34)c2)cc1O` [Compound 3, N-(3-(1H-pyrrolo[2,3-b]pyridin-3-yl)phenyl)-4-amino-3-hydroxybenzamide], the “MPO (CNS MPO score)” value in data set [1] was 4.5. The “effect on the readout of crystal violet and resazurin assays” value in data set [2] is “significant suppressive effect”; in data set [6], “similarly to proliferating U87 cells”. Further, the “effect in crystal violet and resazurin assays” value in data set [3] is “significantly affected”. The “selectivity for senescent versus proliferating cells” value in data set [4] (DIS-BJ vs proliferating BJ, crystal violet and resazurin) is given as “non-selective manner”. Besides, in data set [4] (DTX-induced senescent BJ, 0–100 μM, 24 h), the “sensitivity of senescent cells (crystal violet and resazurin)” value is reported as “significantly sensitive”. Moreover, the “kind of effect on senescent cells” value in data set [5] is given as “rather senomorphic than senolytic effect”.
